This is an account of results in paper PMC11859636, “Design, Synthesis, and Mechanistic Anticancer Evaluation of New Pyrimidine-Tethered Compounds” (Pharmaceuticals, 2025).

In data set [1] the test system is A549 cells. As to the kind of experiment: MTT assay for cytotoxicity, A549 cells. Type of data set: cell-based, human. The following applies: for anti-NSCLC activity (cytotoxicity): A549 cells, 100 µM; for IC50: Homo sapiens, A549, MTT, 72 h. On the procedure:
(§1) Dulbecco’s modified Eagle’s medium (DMEM) (Wako Pure Chemical Industries, Osaka, Japan) containing 10% fetal bovine serum (FBS) (Equitech-Bio, Kerrville, TX, USA) was used for the culture of A549 and MCF-7 human cancer cells, while RPMI 1640 (Wako Pure Chemical Industries) containing 10% FBS was used for the culture of Jurkat cells, derived from human leukemia. On the other hand, PBMCs (Precision Bioservices, Frederick, MD, USA) were incubated in RPMI 1640 supplemented with 10% human serum AB (HS) (Gemini, Woodland, CA, USA). All media also incorporated 89 μg/mL of streptomycin (Meiji Seika Pharma, Tokyo, Japan), and cells were maintained at 37 °C in a 95% air and 5% CO2 humidified chamber. The microtiter tissue culture plates (24-well and 96-well) (Iwaki, Asahi Glass Co., Chiba, Japan) were used for cancer cells (4 × 10^4 cells/mL) and PBMCs (5 × 10^5 cells/mL), respectively. Prior to drug treatment, all of these cells were incubated for 72 h. The optimal cell density for cytotoxicity testing was established in preliminary experiments. […] The final concentration of DMSO in the culture medium was adjusted to 1% [61, 62, 63].
(§2) The cellular reduction in MTT (Dojindo Molecular Technologies, Kumamoto, Japan) was measured as described in the literature with minor modifications. […] MTT was then added at a final concentration 0.275 mg/mL and incubated for a further 4 h at 37 °C. The medium was removed and 100 μL DMSO was added to each well to dissolve the formazan crystals. The dissolved crystals were diluted (1:10) with DMSO, and 100 μL of the solution was transferred to a 96-well microtiter plate (Iwaki, Asahi Glass Co.). Absorbance was measured at 570 nm using an Infinitive M1000 microplate spectrophotometer (Tecan, Groding, Austria). Each concentration was tested in triplicate, and the IC50 values were determined as the drug concentrations that reduced absorbance to 50% of the control values.
In general terms: Tetrazolium dyes change colour on reduction, which living cells bring about.

Data set [2] deals with A549 cells. Kind of data set: Annexin V/ethidium homodimer III staining for apoptosis, A549 cells. The settings on record: IC50 concentration, 24 h. Type of data set: cell-based, human. On the procedure: (§3) Compound B-4 at an IC50 concentration was administered to A549 and MCF-7 cells for 24 h. After detachment from the plate with 0.05% trypsin and washing twice with 1× binding buffer, the cells were incubated for 20 min at r.t. in the dark with a staining solution bearing 50 μL 1× binding buffer, 4 μL FTIC annexin V solution, 4 μL ethidium homodimer III solution, and 4 μL Hoechst 33342 solution. The cells were washed with 1× binding buffer, fixed with 2% paraformaldehyde, washed with PBS, and analyzed by a Biorevo Fluorescence BZ-9000 (Keyence, Osaka, Japan) integrated fluorescence microscope.

Another data set concerns the target T1, EGFR kinase (Homo sapiens, UniProt P00533).
T1 construct: EGFR kinase (human, recombinant; amino acids 695–end); purchased Promega Corporation V3831
Kind of data set: EGFR inhibition assay (EGFR Kinase Enzyme System, ADP-Glo). Type of data set: biochemical. On the procedure: The kinase profiling assay protocol (EGFR Kinase Enzyme System, V3831) was performed following the manufacturer’s instructions (Promega Corporation, Madison, WI, USA) with minor modifications. As per the protocol, 95 μL of 2.5× kinase buffer and 15 μL of 100 μM ATP solution were used for the dilution of the EGFR kinase (human, recombinant; amino acids 695–end) and its substrate (4:1 Glu, Tyr). Kinase reactions were performed in a 384-well plate in the presence of 2 μL of kinase working stock, 2 μL of ATP/substrate working stock, and 1 μL of the test compound solution ([…]) or 5% DMSO solution. After incubating for 2 h at r.t., kinase activity was assessed using the ADP-Glo Kinase Assay (Promega Corporation, Madison, WI, USA) following the manufacturer’s instructions. Specifically, 5 μL of ADP-Glo Reagent was added to each well and incubated for 40 min, followed by the addition of 10 μL of Kinase Detection Reagent and further incubation for 30 min at room temperature. Luminescence was measured using the Infinite M1000 microplate reader (Tecan, Grödig, Austria) with an integration time of 0.5–1 s to evaluate the kinase inhibitory effects of the compounds in a dose-dependent manner.

Data set [3] has as its system MCF-7 cells. Kind of data set: Annexin V/ethidium homodimer III staining for apoptosis, MCF-7 cells. Type of data set: cell-based, human. The settings on record: IC50 concentration, 24 h. The procedure:
as §3

For data set [4], the system named is MCF-7 cells. Kind of data set: MTT assay for cytotoxicity, MCF-7 cells. Type of data set: cell-based, human. The following applies: for IC50: Homo sapiens, MCF7, MTT, 72 h; for anti-breast cancer activity (cytotoxicity): MCF-7 cells, 100 µM. On the procedure:
as §1, §2

A further data set deals with Jurkat cells. As to the kind of experiment: MTT assay for cytotoxicity, Jurkat cells. Type of data set: cell-based, human. The settings on record: for IC50: Homo sapiens, Jurkat, MTT, 72 h. On the procedure:
as §1, §2

For another data set, the system named is PBMCs. As to the kind of experiment: MTT assay for cytotoxicity, PBMCs (healthy). Type of data set: cell-based. The following applies: PBMC, 72 h, healthy cells. On the procedure: as §1
The cellular reduction in MTT (Dojindo Molecular Technologies, Kumamoto, Japan) was measured as described in the literature with minor modifications. […] Absorbance was measured at 570 nm using an Infinitive M1000 microplate spectrophotometer (Tecan, Groding, Austria). […]

In data set [5] the test system is A549 cells. The settings on record: cited from earlier work.
A further data set has as its system EGFR. The settings on record: cited from earlier work; for IC50: read-out: EGFR inhibition IC50.
The subject of data set [6] is MCF-7 cells. The settings on record: cited from earlier work.
Setting [7] is: thiazolyl–pyrazolines, read-out: IC50 A549 cells.
[8] abbreviates: quinoline/chalcone hybrids with 1,2,4-triazole.
Where [9] appears, read: triazoloquinoxaline–chalcone derivatives.

Where “and” joins values, the source holds several entries; their conditions need not be identical. Equal values may be shown once. Read-outs that look alike come from different tables or passages of the source.

T1 sequence (P00533 695-1210 limits assumed): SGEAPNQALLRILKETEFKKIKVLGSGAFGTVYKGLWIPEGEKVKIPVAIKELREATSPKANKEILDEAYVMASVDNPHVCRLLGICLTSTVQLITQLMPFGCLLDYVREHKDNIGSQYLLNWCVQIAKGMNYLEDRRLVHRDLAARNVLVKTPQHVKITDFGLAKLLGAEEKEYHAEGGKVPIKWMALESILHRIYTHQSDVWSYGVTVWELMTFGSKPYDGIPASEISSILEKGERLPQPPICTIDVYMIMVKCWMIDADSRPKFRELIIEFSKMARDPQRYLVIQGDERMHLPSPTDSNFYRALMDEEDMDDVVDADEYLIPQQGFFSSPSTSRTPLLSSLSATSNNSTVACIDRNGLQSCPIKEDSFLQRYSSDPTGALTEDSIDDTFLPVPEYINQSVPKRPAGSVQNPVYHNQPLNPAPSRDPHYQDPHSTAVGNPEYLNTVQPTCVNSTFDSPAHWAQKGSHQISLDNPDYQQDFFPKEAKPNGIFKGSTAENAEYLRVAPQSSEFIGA

In the case of `COc1ccc(C(=O)/C=C/c2cnc(-c3ccc(Cl)cc3)nc2)cc1OC` [B-4, (E)-3-(2-(4-chlorophenyl)pyrimidin-5-yl)-1-(3,4-dimethoxyphenyl)prop-2-en-1-one], the “anti-NSCLC activity (cytotoxicity)” value in the data set on A549 cells [1] is 70%. For the same compound, the IC50 (in general, the point on the concentration scale where inhibition reaches its midpoint) worked out at 20.5 ± 2.71 µM with A549 cells [1], 6.7 ± 1.02 µM in the data set with MCF-7 cells [4], 1.5 ± 0.4 µM with Jurkat cells and 68.9 ± 10.3 µM in the data set on PBMCs. Besides, the “cells that underwent apoptosis” value in the data set with A549 cells [2] is 11.9%; with MCF-7 cells [3] it was 10.2%. In addition, the EGFR inhibition result on EGFR kinase (1 μM) is reported as “weak inhibition”. In addition, the inhibition (in general, the percentage by which the read-out fell short of the control) at 10 µM against EGFR kinase (10 μM) amounted to 46%. Further, the “anti-breast cancer activity (cytotoxicity)” value (from here on “anti-breast cancer activity”) in the data set on MCF-7 cells [4] is given as 70%. In addition, the “SI (Selectivity Index)” value with Jurkat cells (IC50 for PBMC/IC50 for Jurkat cell line) amounted to 45.93.
Consider `COc1ccc(C2=NN(C(N)=S)C(c3cnc(-c4ccc(Cl)cc4)nc3)C2)cc1OC` (centres unmarked) [B-9, 5-(2-(4-chlorophenyl)pyrimidin-5-yl)-3-(3,4-dimethoxyphenyl)-4,5-dihydro-1H-pyrazole-1-carbothioamide], for which the “anti-NSCLC activity (cytotoxicity)” value with A549 cells [1] is recorded as 43%. Moreover, the “anti-breast cancer activity” value with MCF-7 cells [4] stood at 33%.
Consider `COc1ccc(C2=NN(c3nc(-c4ccc(Cl)cc4)cs3)C(c3cnc(-c4ccc(Cl)cc4)nc3)C2)cc1OC` (centres unmarked) [BH-4, 2-(5-(2-(4-Chlorophenyl)pyrimidin-5-yl)-3-(3,4-dimethoxyphenyl)-4,5-dihydro-1H-pyrazol-1-yl)-4-(4-(chloro)phenyl)thiazole], for which the “anti-breast cancer activity” value in the data set with MCF-7 cells [4] is 38%.
As for `COc1ccc(C2=NN(c3nc(-c4ccc(Br)cc4)cs3)C(c3cnc(-c4ccc(Cl)cc4)nc3)C2)cc1OC` (centres unmarked) [BH-5, 2-(5-(2-(4-Chlorophenyl)pyrimidin-5-yl)-3-(3,4-dimethoxyphenyl)-4,5-dihydro-1H-pyrazol-1-yl)-4-(4-(bromo)phenyl)thiazole], the “anti-NSCLC activity (cytotoxicity)” value in the data set with A549 cells [1] is 37%. The “anti-breast cancer activity” value with MCF-7 cells [4] worked out at 39%.
Turning to `Clc1ccc(C2CC(c3ccc4ccccc4c3)=NN2c2nc(-c3ccc(Br)cc3)cs2)cc1` (centres unmarked) [BTT-5], the IC50 with A549 cells [5] (naphthalene-linked pyrazoline–thiazole hybrids, read-out: anti-NSCLC IC50 (A549 cells)) was 9.51 µM. In the data set on EGFR (10 µM concentration, 10 µM), the EGFR inhibition is 58% and 58.32%.
Take `N#Cc1ccc(-c2csc(N3N=C(c4ccc(N5CCOCC5)cc4)CC3c3ccc(Cl)cc3)n2)cc1` (centres unmarked) [Compound 3f]: the IC50 with A549 cells [5] (setting [7]) is 10.8 µM; in the data set with MCF-7 cells [6] (thiazolyl–pyrazolines), 8.05 µM; in the data set on EGFR (thiazolyl–pyrazolines), 4.34 µM.
In the case of `COc1ccc2nc(Cl)c(C3CC(c4ccc(C)cc4)=NN3c3nc(-c4ccc(F)cc4)cs3)cc2c1` (centres unmarked) [Compound 6c], the IC50 in the data set on MCF-7 cells [6] (thiazolyl–pyrazolines) is 0.227 µM; in the data set with EGFR (thiazolyl–pyrazolines), 0.0318 µM.
In the case of `COc1ccc(C2CC(c3ccc(OC)c(OC)c3)=NN2c2nc(-c3ccccc3)cs2)cc1` (centres unmarked) [Compound 6e], the figures for the IC50 with MCF-7 cells [6] (thiazolyl–pyrazolines) and in the data set with EGFR (thiazolyl–pyrazolines) were 7.21 µM and 0.009 µM, respectively.
In the case of `C=CCn1c(SCC(=O)Nc2ccc(C(=O)/C=C/c3ccc(Cl)cc3)cc2)nnc1-c1cc(-c2ccccc2)nc2ccccc12` [Compound 7b], the IC50 in the data set on A549 cells [5] (quinoline/chalcone hybrids with 1,2,4-triazole, read-out: IC50 A549 cells) was 3.6 ± 0.05 µM; with MCF-7 cells [6] (setting [8]) it was 3.3 ± 0.08 µM; with EGFR (setting [8]), 1.3 ± 1.2 µM.
With `CCc1nnc2c(Nc3ccc(C(=O)/C=C/c4ccc(OC)cc4)cc3)nc3ccccc3n12` [Compound 7e], the IC50 was 8.23 ± 0.25 µM in the data set on MCF-7 cells [6] (setting [9]) and 0.083 ± 0.04 µM in the data set with EGFR (setting [9]).
For the compound `CCOC(=O)c1sc(N2N=C(c3ccc(Cl)cc3Cl)CC2c2ccc(OC)cc2)nc1C` (centres unmarked) [Compound 10b], the IC50 in the data set with A549 cells [5] (setting [7]) was 4.22 µM; in the data set with EGFR (thiazolyl–pyrazolines), 0.0407 µM.
For the compound `COc1ccc(C2CC(c3ccc(Cl)cc3Cl)=NN2c2nc(C)c(C(=O)Nc3ccccc3)s2)cc1OC` (centres unmarked) [Compound 10d], the IC50 in the data set on A549 cells [5] (setting [7]) is 2.92 µM; in the data set with EGFR (thiazolyl–pyrazolines), 0.0325 µM.
Turning to `CS(=O)(=O)CCNCc1ccc(-c2ccc3ncnc(Nc4ccc(OCc5cccc(F)c5)c(Cl)c4)c3c2)o1` [Lapatinib], the IC50 in the data set with A549 cells [1] is 18.2 ± 3.25 µM; with MCF-7 cells [4] it was 9.71 ± 1.12 µM; in the data set with Jurkat cells it was 1.43 ± 0.35 µM; in the data set with PBMCs, 12.7 ± 2.08 µM.
